Read-outs that look alike come from different tables or passages of the source. A value given as a limit tells only on which side of the number the result lay.

For orientation: Km means the substrate concentration at which the rate is half of its maximum.

Holding throughout (assay type): biochemical
Data set [1] has as its target T1, FIH (Homo sapiens, UniProt Q9NWT6).
T1 construct: Full-length recombinant FIH, two- and three-consensus ankyrin repeats (2CA and 3CA) were produced as described; His6 (cleaved yes); made in house; host or cells: Escherichia coli BL21(DE3)
Nature of the data set: Steady-state kinetics of FIH-catalyzed peptide/protein hydroxylation (MALDI-TOF-MS or LC-MS). The following applies: for Km / kcat^app: 50 μM Fe(II), 1 mM L-ascorbate; for kcat^app: MALDI-TOF-MS or LC-MS; for 2OG concentration above which substrate inhibition was observed: FIH steady-state assays with the named CAD peptide. As for the experimental part:
(§1) Enzymatic assays were conducted as described ([46], [47]). Unless otherwise stated, the assay mixture typically contained 5 μM FIH, 500 μM substrate, 500 μM 2OG, 1 mM L-ascorbate, and 50 μM Fe(NH4)2(SO4)2 or 4 μM PHD2, 100 μM substrate, 300 μM 2OG, 4 mM L-ascorbate, and 50 μM Fe(NH4)2(SO4)2. For HIF-1α CODD19-mer, the background levels of methionine oxidation resulting from assay conditions were subtracted based on non-enzymatic controls ([48]).
(§2) The O2 dependence of FIH-catalyzed reactions was determined by conducting enzymatic assays in an “In vivo 500 Hypoxia Workstation” (Ruskinn) using buffers pre-equilibrated under different pO2 values for 24 h. The O2 dependence of PHD2-catalyzed reactions was determined by conducting enzymatic assays in sealed glass vials with variable N2/O2 contents ([42]). Reactions were stopped by spotting samples onto a matrix-assisted laser desorption/ionization-time of flight mass spectrometry (MALDI-TOF-MS) target plate and immediately mixing with α-cyano-4-hydroxycinnamic acid matrix. Hydroxylation levels were assessed by MALDI-TOF-MS as described ([46]).
Samples obtained from FIH kinetic assays with 2CA and 3CA were diluted to a substrate concentration of 5 μM and then analyzed using a Waters® LCT Classic mass spectrometer by electrospray ionization in positive ion mode. An Agilent HP1100 LC system was used, and samples were run through a Phenomenex® Aeris Widepore 3.6-μm XB-C8 150 × 2.1-mm column at 0.5 ml/min in a gradient of phase A (95% H2O, 5% CH3CN, 0.01% formic acid) to phase B (95% CH3CN, 5% H2O, 0.01% formic acid). The LC/MS used the following method: 0–1.5 min, 100% A and then 1.5–12 min linear gradient from 0 to 100% B, 12–14 min 100% B, and 15.0–19.0 min 100% A for re-equilibration of the column. Data were collected and analyzed using MassLynx version 4.0.

For data set [2], the target named is T1, FIH. Nature of the data set: O2 dependence of FIH-catalyzed hydroxylation (hypoxia workstation). The following applies: for Km: FIH with the named substrate, 5 μM FIH, 500 μM peptide, 50 μM Fe(II), 1 mM 2OG, 1 mM L-ascorbate, 50 mM HEPES pH 7.5, 37 °C, hypoxia workstation at different pO2, triplicate assays, read-out: Km^app(O2). How it is done:
as §2
FIGURE 4. O2 dependence of FIH- and PHD2-catalyzed hydroxylation of HIF-1/2α. A, O2 dependence of PHD2-catalyzed hydroxylation of HIF-1/2α CODD/NODD 19-mer peptides. 4 μM PHD2, peptide (varied), 50 μM Fe(II), 2OG (varied), 4 mM L-ascorbate in HEPES 50 mM (pH 7.5) were incubated at 37 °C. The different O2 levels were maintained using mass flow controllers ([42]), and the hydroxylation levels were analyzed by MALDI-TOF-MS. B, O2 dependence of FIH-catalyzed hydroxylation of CAD HIF-1/2α 35-mer peptides. Conditions were as follows. 5 μM FIH, 500 μM peptide, 50 μM Fe(II), 1 mM 2OG, 1 mM L-ascorbate in HEPES 50 mM (pH 7.5) were incubated at 37 °C in a hypoxia work station under different pO2. […] Error bars, S.D. of triplicate assays.
FIGURE 8. Time course and O2 dependence of the FIH-catalyzed hydroxylation of HIF-α CAD and ARD substrates. Conditions were as follows. 5 μM FIH, 500 μM peptide, 50 μM Fe(II), 1 mM 2OG, 1 mM L-ascorbate in HEPES 50 mM (pH 7.5) were incubated at 37 °C. For O2 dependence studies, reactions were carried out in a hypoxic work station under different pO2 (assays at >20% O2 conducted using mass flow controllers ([42])). The different hydroxylation levels were analyzed by MALDI-TOF-MS or by LC-MS (for 2CA and 3CA). […] Error bars, S.D. of triplicate assays. A, time course of consensus ARD substrate hydroxylation (tankyrase-1 (tnkrs-1 20-mer and 35-mer) and one-consensus ankyrin repeat 20-mer (1CA)). B, time course of ARD peptide hydroxylation (one-consensus ankyrin repeat 20-mer (1CA), two ankyrin repeats (2CA), and three ankyrin repeats (3CA)). C, O2 dependence of HIF-1/2α CAD, 1CA, and tnkrs-1_35-mer hydroxylation. D, O2 dependence of 1CA, 2CA, and 3CA hydroxylation.

The target of data set [3] is T1, FIH. Kind of data set: Time course of FIH-catalyzed peptide hydroxylation. The conditions noted are these: 5 μM FIH, 500 μM peptide, atmospheric O2; for substrate hydroxylation (time course): 50 μM Fe(II), 500 μM 2OG, 1 mM L-ascorbate, 50 mM HEPES pH 7.5, 37 °C, MALDI-TOF-MS, triplicate assays. How it is done:
as §1
FIGURE 3. PHD2- and FIH-catalyzed hydroxylation of HIF-1/2α peptide substrates. A, time course of HIF-1/2α CODD19-mer peptide hydroxylation; B, time course of HIF-1/2α NODD19-mer peptide hydroxylation. Conditions were as follows: 4 μM PHD2, 100 μM peptide, 50 μM Fe(II), 300 μM 2OG, 1 mM L-ascorbate in HEPES 50 mM (pH 7.5) were incubated at 37 °C at atmospheric O2. C, time course of HIF-1α CAD 19- and 35-mer peptide hydroxylation. D, time course of HIF-2α CAD 19- and 35-mer peptide hydroxylation. Conditions were as follows: 5 μM FIH, 500 μM peptide, 50 μM Fe(II), 500 μM 2OG, 1 mM L-ascorbate in HEPES 50 mM (pH 7.5) were incubated at 37 °C at atmospheric O2. The different hydroxylation levels were analyzed by MALDI-TOF-MS. Error bars, S.D. of triplicate assays.

The target in data set [4] is T2, PHD2 (catalytic domain, residues 181–426) (Homo sapiens, UniProt Q9GZT9).
T2 construct: The catalytic domain of PHD2 (residues 181–426) was purified as described; made in house
T2 sequence (Q9GZT9 181-426): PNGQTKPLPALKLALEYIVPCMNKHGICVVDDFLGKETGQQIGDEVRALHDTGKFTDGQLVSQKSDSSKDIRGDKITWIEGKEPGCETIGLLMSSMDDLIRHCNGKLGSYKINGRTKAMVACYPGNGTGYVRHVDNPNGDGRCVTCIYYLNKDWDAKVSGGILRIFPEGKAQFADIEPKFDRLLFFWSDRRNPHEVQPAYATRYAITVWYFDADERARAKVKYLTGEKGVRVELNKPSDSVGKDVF
Nature of the data set: Steady-state kinetics of PHD2-catalyzed HIF-α CODD/NODD hydroxylation (MALDI-TOF-MS). The following applies: 4 mM L-ascorbate, 50 mM HEPES pH 7.5, 37 °C; for kcat^app: PHD2, 4 μM PHD2, 50 μM Fe(II); for Km: 50 μM Fe(II), triplicate assays. As for the experimental part: as §1, §2

Where [5] appears, read: FIH with the named substrate, 0.1–5 μM FIH, 2OG varied, 50 mM HEPES pH 7.5, 37 °C, MALDI-TOF-MS (LC-MS for 2CA, 3CA), triplicate assays, read-out: Km^app(2OG).
Setting [6] is: FIH, 0.1–5 μM FIH, substrate varied, 2OG fixed, 50 mM HEPES pH 7.5, 37 °C, MALDI-TOF-MS (LC-MS for 2CA, 3CA), triplicate assays, read-out: Km^app(peptide).
[7] abbreviates: PHD2, 4 μM PHD2, peptide varied, 300 μM 2OG, read-out: Km^app(peptide).
Setting [8] is: PHD2 with the named substrate, 4 μM PHD2, 2OG varied, read-out: Km^app(2OG).

T1 sequence (Q9NWT6 whole entry): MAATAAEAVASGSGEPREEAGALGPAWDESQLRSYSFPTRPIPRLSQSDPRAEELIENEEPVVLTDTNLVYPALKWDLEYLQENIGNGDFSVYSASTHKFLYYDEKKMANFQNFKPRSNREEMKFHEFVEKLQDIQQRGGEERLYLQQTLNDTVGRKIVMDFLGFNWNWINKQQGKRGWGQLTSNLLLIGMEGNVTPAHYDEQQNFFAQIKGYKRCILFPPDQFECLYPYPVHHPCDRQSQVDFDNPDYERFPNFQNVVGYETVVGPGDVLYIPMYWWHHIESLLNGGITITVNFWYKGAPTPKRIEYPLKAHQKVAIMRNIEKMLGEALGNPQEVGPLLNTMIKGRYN

With “AAGYNNLEVAEYLLEHGADVNAQDKGGLIPLHNAA [tnkrs-1_35-mer, 35-mer fragment of tankyrase-1, ARD substrate of FIH]”, the Km in data set [1] (setting [5]) turned out to be 61 ± 7 µM; in data set [1] (setting [6]), 14 ± 4 µM; in data set [2] it was 50 ± 10 µM. Moreover, in data set [1] (FIH, 50 mM HEPES pH 7.5, 37 °C), the “kcat^app” value is 3.0 ± 0.2 s⁻¹.

On to “DESGLPQLTSYDCEVNAPIQGSRNLLQGEELLRAL [HIF-1α CAD35-mer]”, for which the “substrate hydroxylation (time course)” value in data set [3] is “nearly complete substrate hydroxylation”. For the same sequence, the Michaelis constant (Km) in data set [1] (5 μM FIH, peptide 500-1000 µM fixed, 2OG varied, Figure S3B, read-out: Km^app(2OG), fitting with a substrate inhibition model) is 300 ± 100 µM; in data set [1] (setting [5]), 110 ± 20 µM; in data set [1] (setting [6]), 180 ± 30 µM; in data set [2], 110 ± 30 µM. In addition, in data set [1], the “2OG concentration above which substrate inhibition was observed” value was greater than 100 µM. For the same sequence, in data set [1] (FIH, 50 mM HEPES pH 7.5, 37 °C), the “kcat^app” value is 0.56 ± 0.04 s⁻¹. Besides, the “Half-saturation of O2” value in data set [2] (FIH-catalyzed hydroxylation, hypoxia workstation, 37 °C) is 9–11 % O2.

For “EELAQLAPTPGDAIISLDF [HIF-2α NODD, 19-mer fragment (398–416) of the HIF-2α N-terminal oxygen-dependent degradation domain, PHD2 substrate]”, in data set [4], the “kcat^app” value was determined as 0.013 ± 0.001 s⁻¹. Also, the figures for the Km in data set [4] (setting [7]) and in data set [4] (setting [8]) were 50 ± 8 µM and 17 ± 5 µM, respectively.

As to “ELDLETLAPYIPMDGEDFQ [HIF-2α CODD, 19-mer fragment (523–541) of the HIF-2α C-terminal oxygen-dependent degradation domain, PHD2 substrate]”, in data set [4], the “kcat^app” value came to 0.069 ± 0.006 s⁻¹. Also, the Km in data set [4] (setting [7]) amounted to 34 ± 10 µM; in data set [4] (setting [8]), 9 ± 2 µM.

Regarding “ESYLLPELTRYDCEVNVPVLGSSTLLQGGDLLRAL [HIF-2α CAD35-mer]”, the “substrate hydroxylation (time course)” value in data set [3] is less than 30%. Moreover, the “increase in activity on increasing peptide length (19-mer to 35-mer)” value in data set [3] (standard conditions, 37 °C) was 10%. For the same sequence, the “2OG concentration above which substrate inhibition was observed” value in data set [1] is greater than 700 µM. In addition, the Km in data set [1] (setting [5]) was found to be 19 ± 6 µM; in data set [1] (setting [6]) it was 315 ± 40 µM; in data set [2], 110 ± 10 µM. Besides, in data set [1] (FIH, 50 mM HEPES pH 7.5, 37 °C), the “kcat^app” value was 0.049 ± 0.005 s⁻¹.

Regarding “GSHMGSDLGKKLLEAARAGQDDEVRILMANGADVAAKDKNGSTPLHLAARNGHLEVVKLLLEAGADVNAQDKFGKTAFDISIDNGNEDLAEILQ [3CA, recombinant three-consensus ankyrin repeat protein produced in Escherichia coli]”, the values for the Km in data set [1] (setting [5]), in data set [1] (setting [6]) and in data set [2] were 200 ± 60 µM, 60 ± 15 µM and 120 ± 20 µM, respectively. In addition, the “kcat^app” value in data set [1] (FIH, 50 mM HEPES pH 7.5, 37 °C) is 0.6 ± 0.2 s⁻¹. Besides, the “Km^app(O2) fold higher than in the presence of 1CA and 2CA” value in data set [2] (FIH) is 2 fold.

Take HLEVVKLLLEAGADVNAQDK [1CA20-mer]: the Km in data set [1] (setting [5]) is 290 ± 50 µM; in data set [1] (setting [6]), 25 ± 7 µM; in data set [2] it was 40 ± 10 µM. Further, the “kcat^app” value in data set [1] (FIH, 50 mM HEPES pH 7.5, 37 °C) worked out at 1.6 ± 0.1 s⁻¹.

On to “SDKNGSTPLHLAARNGHLEVVKLLLEHGADVNAQDKWGKTAFDISIDNGNEDLAEILQ [2CA, recombinant two-consensus ankyrin repeat protein produced in Escherichia coli]”, for which the Km in data set [1] (setting [5]) came to 110 ± 30 µM; in data set [1] (setting [6]), 16 ± 3 µM; in data set [2], 56 ± 15 µM. For the same sequence, the “kcat^app” value in data set [1] (FIH, 50 mM HEPES pH 7.5, 37 °C) worked out at 1.7 ± 0.2 s⁻¹.

(Values after PMC4528135, “Kinetic Investigations of the Role of Factor Inhibiting Hypoxia-inducible Factor (FIH) as an Oxygen Sensor” (The Journal of Biological Chemistry, 2015).)
